Data as given in PubChem BioAssay AID489032 (Sanford-Burnham Center for Chemical Genomics, 2010).
Calls of active or inactive are those of the source. No rule for the calls is given here.

system: UPR adaptive arm reporter cells, luciferase luminescence; assay: adaptive unfolded protein response reporter activation – cell-based, luciferase luminescence, dose response (AID 489032)

| Compound | EC50 |
| --- | --- |
| COc1ccc(-c2ccc(C#N)c(SCC(=O)Nc3sc4c(c3C#N)CCC4)n2)cc1OC | > 80 µM (inactive) |
| Cc1ccc2oc(C(Cl)(Cl)Cl)cc(=O)c2c1 | 28.3 µM (inactive) |
| CC1CCc2cc(F)ccc2N1C(=O)CSc1nnc2c(n1)[nH]c1ccc(F)cc12 (centres undefined) | > 80 µM (inactive) |
| C[C@@H]1C[C@H]2[C@@H]3CCC4=CC(=O)C=C[C@]4(C)[C@@]3(Cl)[C@@H](O)C[C@]2(C)[C@@]1(OC(=O)c1ccco1)C(=O)CCl | > 80 µM (inactive) |
| COc1cc(NC(=O)c2cncc(-c3ccc(C#N)cc3)c2)cc(C(=O)Nc2cccc(C(F)(F)F)c2)c1 | 46.3 µM (inactive) |
| Cc1cccnc1Nc1nc(-c2ccc(O)c(O)c2)cs1 | > 80 µM (inactive) |
| COc1cc(C(=O)Nc2nc(-c3ccc(Cl)cc3)c(C)s2)ccc1OCC(=O)Nc1ccc(F)cc1 | > 80 µM (inactive) |
| Cc1cc(NC(=O)c2cc(-c3ccncc3)nc3ccccc23)ccc1Br | 27.8 µM (inactive) |
| O=C(Nc1ccc(O)c2c(=O)cc(-c3cccc(Cl)c3)oc12)c1cccc(Cl)c1 | 20.9 µM (inactive) |
| C=C(C)[C@@]12OC3(c4ccccc4)O[C@@H]1C1[C@@H]4O[C@]4(CO)[C@@H](O)[C@]4(O)C(=O)C(C)=C[C@H]4[C@@]1(O3)[C@H](C)[C@H]2OC(=O)/C=C/C=C/c1ccccc1 (some centres undefined) | 39.1 µM (inactive) |
| O=C(Nc1ccc([N+](=O)[O-])cc1)C(Cc1ccccc1)N1C(=O)c2cccc3cccc(c23)C1=O (centres undefined) | 27 µM (inactive) |
| O=C(NCCC1=CCCCC1)C(=O)NCC(c1ccco1)N1CCN(c2ccc(F)cc2)CC1 (centres undefined) | > 80 µM (inactive) |
| FC(F)(F)c1nc2ccccc2n2c(-c3ccc(Cl)cc3)nnc12 | > 80 µM (inactive) |
| Cc1cc(N2CCN(c3ccc([N+](=O)[O-])c4cccnc34)CC2)c2ccccc2n1 | 21.4 µM (inactive) |
| CCOc1cc(/C=C2/C(=N)N3C=CSC3=NC2=O)ccc1OCCCOc1ccccc1C | > 80 µM (inactive) |
| COc1ccc(/C=C/c2nc3cc(-c4ccccc4)ccc3o2)cc1O | > 80 µM (inactive) |
| CCCCCCCCCCn1c2c(c(=N)c3c1CCC3)CCC2 | 24.9 µM (inactive) |
| CCN(CC)c1ccc(N=Cc2c(O)n(Cc3ccccc3)c(=O)[nH]c2=O)cc1 | 62.5 µM (inactive) |
| Cc1cc(C)c2c(c1)/C(=c1/sc3n(c1=O)CN(c1ccccc1)CN=3)C(=O)N2 | 19.2 µM |
| COc1cc(-c2noc(C)c2/C=C/c2ccc(OC(C)=O)cc2)cc(OC)c1OC | > 80 µM (inactive) |
| CCOC(=O)c1c(NC(=O)CSc2nnc3c(n2)[nH]c2ccc(F)cc23)sc(C(C)=O)c1C | 21.8 µM (inactive) |
| CCCCCC(=O)Nc1ccc(C(=O)N/N=C/c2ccc([N+](=O)[O-])cc2)cc1 | > 80 µM (inactive) |

| Compound | EC50 |
| --- | --- |
| Cc1ccc(Cl)cc1N1CCN(Cc2nc3c(c(=O)[nH]c(=O)n3C)n2CCc2ccccc2)CC1 | > 80 µM (inactive) |
| Cc1ccc(Cc2cnc(NC(=O)/C(C#N)=C/c3ccc(-c4ccc([N+](=O)[O-])cc4)o3)s2)cc1 | 9.69 µM |
| CCN(CC)CCn1c(SCC(=O)Nc2ccc(F)cc2)nc2c(sc3ccccc32)c1=O | > 80 µM (inactive) |
| CN1/C(=C\C(=O)COC(=O)c2ccc(O)c(O)c2)C(C)(C)c2ccccc21 | > 80 µM (inactive) |
| CCOc1ccc(-n2c(C)cc(C(=O)CCl)c2C)cc1 | 8.94 µM |
| CCN=C1S/C(=C\c2cn(CC(=O)NCc3ccco3)c3ccccc23)C(=O)N1CC | > 80 µM (inactive) |
| CC(C)CN=C(NS(=O)(=O)c1ccccc1)C(Cl)(Cl)Cl | > 80 µM (inactive) |
| COc1ccc(N=c2oc3ccc(OC)cc3cc2-c2nc3ccccc3[nH]2)cc1 | 15.3 µM |
| COc1ccc2oc(-c3ccc(C)c(NC(=O)c4ccc(N5CCOCC5)c([N+](=O)[O-])c4)c3)nc2c1 | > 80 µM (inactive) |
| CCOc1cc(/C=N/NC(N)=S)cc(Br)c1OCc1ccccc1C | > 80 µM (inactive) |
| CCOc1cc(/C=N/N=C(\N)c2nonc2N)cc(Br)c1OCc1cccc2ccccc12 | > 80 µM (inactive) |
| CCOc1cc(/C=C(\C#N)c2[nH]nc(N)c2C#N)ccc1O | > 80 µM (inactive) |
| CCOc1ccccc1-n1c(SCC(=O)Nc2ccc(CC)cc2)nc2n[nH]c(C)c2c1=N | 5.91 µM |
| Cc1cc(C)c2c(CCl)cc(=O)oc2c1 | > 80 µM (inactive) |
| CN(C)CCCN(C(=O)c1ccc(S(=O)(=O)N2CCCCCC2)cc1)c1nc2ccc(Br)cc2s1 | > 80 µM (inactive) |
| Cc1cc(NC(=O)/C(C#N)=C/c2ccc(-c3ccc(SC(F)F)cc3)o2)n(-c2ccccc2)n1 | > 80 µM (inactive) |
| CCOC(=O)c1c(NC(=O)c2cc3n(n2)C(C(F)(F)F)CC(c2cccs2)N3)sc(C)c1C (centres undefined) | 15.9 µM |
| Cc1nn(Cc2c(Cl)cccc2Cl)c(C)c1NC(=O)c1cn(-c2ccccc2)nc1-c1ccccc1 | > 80 µM (inactive) |
| COc1ccc(CCn2c(=S)[nH]c3cc(C(=O)NCc4ccco4)ccc3c2=O)cc1OC | > 80 µM (inactive) |
| OC(CNCC1CCCO1)Cn1c2ccc(Br)cc2c2cc(Br)ccc21 (centres undefined) | > 80 µM (inactive) |
| COc1cccc2sc(N3CCN(c4nc5ccccc5s4)CC3)nc12 | > 80 µM (inactive) |
| COc1ccccc1NC(=O)c1cc2c(CO)cnc(C)c2oc1=Nc1ccccc1 | 25.7 µM (inactive) |

| Compound | EC50 |
| --- | --- |
| CC1=Nc2ccccc2/C1=C\c1sc(Nc2ccc(C)cc2)nc1O | > 80 µM (inactive) |
| COc1cc(C(=O)Nc2cc(-c3nc4cc(C)ccc4o3)ccc2C)cc(OC)c1OC | > 80 µM (inactive) |
| COc1ccc(C(CCNCc2ccc(F)cc2)c2ccc(F)cc2)cc1 (centres undefined) | 9.17 µM |
| Cc1nc2cc(NC(=O)CSc3nc4c(C)cccc4cc3C#N)ccc2s1 | > 80 µM (inactive) |
| CCC(=O)Nc1nnc(SCC(=O)c2ccc3c(c2)Cc2ccccc2-3)s1 | > 80 µM (inactive) |
| CCOC(=O)c1nn(-c2ccc(OCC)cc2)c2nc(-c3ccco3)c(C#N)c(=O)n12 | 58.9 µM (inactive) |
| Cc1c(Cl)cccc1Nc1nc(NCCO)c2ccccc2n1 | 26.6 µM (inactive) |
| CCN(CC)S(=O)(=O)c1ccc2c(c1)C(=NO)c1cc(S(=O)(=O)N(CC)CC)ccc1-2 | 18.6 µM |
| O=c1[nH]c(-c2ccc(-c3cccc(Cl)c3)o2)nc2ccccc12 | 13.7 µM |
| Cc1c(NC(=O)CSc2ccc(Cl)cc2)cccc1-c1nc2cc(Cl)ccc2o1 | > 80 µM (inactive) |
| Oc1cccc(-c2nc3c4c(ncn3n2)-c2ccccc2CC42CCCC2)c1 | > 80 µM (inactive) |
| Cc1cc(SCC(=O)c2ccc(O)c(O)c2)n2nc(C)c(-c3ccccc3)c2n1 | > 80 µM (inactive) |
| COc1ccc(-c2cc(=O)oc3c(C)c(OC(=O)c4cccs4)ccc23)cc1 | > 80 µM (inactive) |
| Cc1ccc(NC(=O)c2cc(S(=O)(=O)N(C)C)ccc2N2CCCC2)cc1F | 37.6 µM (inactive) |
| O=c1cc(CN2CCN(c3ccc(F)cc3)CC2)c2cc3c(cc2o1)CCCC3 | 17.6 µM |
| Cc1cc(NC(=O)c2cncc(Br)c2)ccc1NC(=O)c1cc2ccccc2o1 | > 80 µM (inactive) |
| CCN(CC)c1ccc(/C=C/[N+](=O)[O-])cc1 | 19.4 µM |
| Cc1ccc(C2=Nc3ccc(Br)cc3C(c3ccncc3)=NN2)cc1 | 24 µM (inactive) |
| COc1cc2c(cc1NC(=S)NC(=O)/C=C/c1ccco1)oc1ccccc12 | 21.3 µM (inactive) |
| O=C(Cn1c2ccc(F)cc2c2nc3n(c(=O)c21)CCS3)Nc1ccc(Cl)cc1F | > 80 µM (inactive) |
